{"source": "patent US20150065416A1", "about": "“NOVEL DRUG COMBINATION” (FAB PHARMA SAS, priority 2013, published 2015)", "key": {"A. baumannii isolates": {"system": "A. baumannii isolates", "experiment": "Time kill study (Example 4)", "format": "cell-based, Acinetobacter baumannii", "settings": "for MIC: Acinetobacter baumannii, read-out: MIC; for Time to kill 99.9%: alone", "protocol": "A total of 12 isolates were tested (three per sub-group either susceptible, meropenem-resistant, amikacin-resistant or colistin-resistant). Two combinations were tested per isolate. Time-kill kinetics were performed by testing compound (I) and an additional antibacterial agent (amikacin, colistin and meropenem) individually at 1× and 4× the corresponding MIC of each antibacterial agent. […] Samples were taken at 0, 2, 4, 8 and 24 hours in order to determine colony forming units (CFU/mL).\nTime-kill studies were carried out as described in General Procedures using combinations of compound (I) with amikacin, meropenem and colistin, respectively."}, "A. baumannii SAN strain": {"system": "A. baumannii SAN strain", "experiment": "Bactericidal activity (time kill kinetics, Example 5)", "format": "cell-based, Acinetobacter baumannii", "settings": "alone at 2×MIC", "protocol": "In addition, a second set of experiments involved the testing of compound(I)/additional antibacterial agent combinations of 2×/2×MIC. Samples were taken at 0, 3, 6 and 24 hours in order to determine colony forming units (CFU/mL)."}, "A. baumannii SAN-94040 [1]": {"system": "A. baumannii SAN-94040", "experiment": "Mouse model of A. baumannii pneumonia, Study 1: survival", "format": "in vivo, Acinetobacter baumannii", "protocol": "(§1) The bacterial inoculum was prepared in order to obtain a suspension containing 10^8 CFU/mL of Acinetobacter baumannii in saline.\n(§2) Experimentations were performed with six-week old female C3H/HeN mice (18-20 g, Breeding Centre JANVIER (Ile saint Genest Mayenne 53)) because of their particular susceptibility to Acinetobacter baumannii and the reproducibility of the results (inbreeding in the breed). Each mouse was individually marked and housed in cages containing five animals/cage under ventilated and controlled (temperature and humidity) atmosphere.\n(§3) The mice were rendered transiently neutropenic by 2 intra-peritoneal (IP) injections of 150 μL of cyclophosphamide (Endoxan® 150 mg/kg) 4 (D-4) and 3 (D-3) days before the Acinetobacter baumannii inoculation (Day 0). This transient immunosuppression was sufficient to facilitate the development of the A. baumannii pneumonia while allowing the recovery of the neutrophil influx 2 (Day 2) days after inoculation in order to avoid or limit a systemic bacterial dissemination.\n(§4) Mice were anesthetized by a mixture of oxygen and isoflurane. The bacterial inoculation was performed on Day 0 by intra-tracheal installation using an endotracheal catheter (50 μl of the suspension, thus 5.106 CFU). The positioning of the catheter in the trachea (instead of in the oesophagus) was checked by a “ring test”. The bacterial count in lungs was checked for all study groups by sacrificing one mouse immediately after inoculation.\nSurvival observations were assessed twice daily, up to 4 days post infection. The survival rates were compared with the Chi-square test or the Fisher exact test as appropriate. The survival curves were compared by the Kaplan-Meier method.\nThe aim of this experiment was to assess the […], with compound (I) via intra-peritoneal route at 200 mg/kg 3 times daily (every 8 hours) for 1 day alone and in combination with meropenem at 50 mg/kg 3 times daily (every 8 hours) for 1 day or with amikacin at 18 mg/kg 3 times daily (every 8 hours) for 1 day."}, "A. baumannii SAN-94040 [2]": {"system": "A. baumannii SAN-94040", "experiment": "Mouse model of A. baumannii pneumonia, Study 2: bacterial counts in blood and tissues", "format": "in vivo, Acinetobacter baumannii", "protocol": "as §1, §2, §3, §4\nSample time points: T0 (pre-inoculation), T24h (post inoculation), T48h and T72h.\nBlood samples preparation: At each time point, three mice were sacrificed per group by cervical dislocation.\nTissue samples preparation: At each time point, three mice were sacrificed per group. Lungs, kidneys, liver and spleen were collected after the blood sampling and cervical dislocation. Tissues were wiped with a sterile gauze to remove blood contaminant outside. Tissues were then be weighed, finely ground and plated on agar for quantitative culture. Cultures were incubated at 37° C. for 18 to 24 hours.\nThe aim of this experiment was to assess the bacterial counts in blood, lungs, spleen, liver and kidneys of transiently neutropenic female C3H/HeN mice administered, 3 hours post-inoculation of A. baumannii SAN-94040 via intra-tracheal route, with compound (I) via intra-peritoneal route at 200 mg/kg 3 times daily (every 8 hours) for 1 day alone and in combination with meropenem at 50 mg/kg 3 times daily (every 8 hours) for 1 day or with amikacin at 18 mg/kg 3 times daily (every 8 hours) for 1 day.\nAll results concerning bacterial counts were expressed from Day 0 (inoculation) to 72 hours post-inoculation (Day 3). Bacterial counts on Day 3 were carried out only on surviving mice and results were more objectionable for interpretation. On Day 0, only bacterial count in lung of control mice was performed. Bacterial cell counts were determined as set out in the General Procedures."}, "[3]": {"settings": "Study 1, 24 h after infection, doses as E210"}, "[4]": {"settings": "Study 1, 48 h after infection, doses as E210"}}, "note": "Where two headings read alike, the source gives them in different places."}
{"compound": "NCC[C@H](O)C(=O)N[C@@H]1C[C@H](N)[C@@H](O[C@H]2O[C@H](CN)[C@@H](O)[C@H](O)[C@H]2O)[C@H](O)[C@H]1O[C@H]1O[C@H](CO)[C@@H](O)[C@H](N)[C@H]1O", "note": "[amikacin]", "values": [{"measurement": "MIC", "setting": "A. baumannii isolates; isolate MPM-R-1", "value": 4, "unit": "µg/mL"}, {"measurement": "MIC", "setting": "A. baumannii isolates; isolate MPM-R-2", "value": 8, "unit": "µg/mL"}, {"measurement": "MIC", "setting": "A. baumannii isolates; isolate MPM-R-3", "value": 4, "unit": "µg/mL"}, {"measurement": "MIC", "setting": "A. baumannii isolates; isolate Sus-1", "value": 2, "unit": "µg/mL"}, {"measurement": "MIC", "setting": "A. baumannii isolates; isolate Sus-2", "value": 4, "unit": "µg/mL"}, {"measurement": "MIC", "setting": "A. baumannii isolates; isolate Sus-3", "value": 4, "unit": "µg/mL"}, {"measurement": "Time to kill 99.9%", "setting": "A. baumannii isolates; MPM-R-1, 1xMIC", "value": 1.4, "unit": "h"}, {"measurement": "Time to kill 99.9%", "setting": "A. baumannii isolates; MPM-R-1, 4xMIC", "value": 1.2, "unit": "h"}, {"measurement": "Time to kill 99.9%", "setting": "A. baumannii isolates; MPM-R-2, 1xMIC", "value": 1.3, "unit": "h"}, {"measurement": "Time to kill 99.9%", "setting": "A. baumannii isolates; MPM-R-2, 4xMIC", "value": 1.2, "unit": "h"}, {"measurement": "Time to kill 99.9%", "setting": "A. baumannii isolates; MPM-R-3, 1xMIC", "value": 1.4, "unit": "h"}, {"measurement": "Time to kill 99.9%", "setting": "A. baumannii isolates; MPM-R-3, 4xMIC", "value": 1.2, "unit": "h"}, {"measurement": "Time to kill 99.9%", "setting": "A. baumannii isolates; Sus-1, 1xMIC", "value": 1.7, "unit": "h"}, {"measurement": "Time to kill 99.9%", "setting": "A. baumannii isolates; Sus-1, 4xMIC", "value": 1.2, "unit": "h"}, {"measurement": "Time to kill 99.9%", "setting": "A. baumannii isolates; Sus-2, 4xMIC", "value": 1.2, "unit": "h"}, {"measurement": "Time to kill 99.9%", "setting": "A. baumannii isolates; Sus-3, 1xMIC", "value": 1.3, "unit": "h"}, {"measurement": "Time to kill 99.9%", "setting": "A. baumannii isolates; Sus-3, 4xMIC", "value": 1.3, "unit": "h"}, {"measurement": "effect in time-kill studies when tested alone", "setting": "A. baumannii isolates; alone at 1× or 4×MIC", "value": "generally bactericidal"}, {"measurement": "effect in time-kill study when tested alone", "setting": "A. baumannii SAN strain", "value": "bactericidal"}, {"measurement": "survivors (%)", "setting": "A. baumannii SAN-94040 [1]; Study 1, 0 h after infection, doses as E210", "value": 100, "unit": "%"}, {"measurement": "No. of survivors", "setting": "A. baumannii SAN-94040 [1]; [3]", "value": 12}, {"measurement": "survivors (%)", "setting": "A. baumannii SAN-94040 [1]; [3]", "value": 86, "unit": "%"}, {"measurement": "No. of survivors", "setting": "A. baumannii SAN-94040 [1]; [4]", "value": 1}, {"measurement": "survivors (%)", "setting": "A. baumannii SAN-94040 [1]; [4]", "value": 17, "unit": "%"}, {"measurement": "No. of survivors", "setting": "A. baumannii SAN-94040 [1]; Study 1, 72 h after infection, doses as E210", "value": 0}, {"measurement": "No. of survivors", "setting": "A. baumannii SAN-94040 [1]; Study 1, 96 h after infection, doses as E210", "value": 0}, {"measurement": "No. of survivors", "setting": "A. baumannii SAN-94040 [1]; Study 1, C3H/HeN mice, 0 h after SAN-94040 infection, compound (I) 200 mg/kg, amikacin 18 mg/kg, meropenem 50 mg/kg q 8 h I.P.", "value": 14}, {"measurement": "lung bacterial counts", "setting": "A. baumannii SAN-94040 [2]; Study 2, 24 h, compound (I) 200 mg/kg Q8h, amikacin 18 mg/kg, meropenem 50 mg/kg Q8h I.P. for 1 day", "value": "1.33E+09", "unit": "CFU/g Lung"}, {"measurement": "lung bacterial counts", "setting": "A. baumannii SAN-94040 [2]; Study 2, 48 h", "value": "4.41E+08", "unit": "CFU/g Lung"}]}
